Results taken from patent publication US20250082618A1, “DOSING REGIMENS USING TOPICAL ROFLUMILAST COMPOSITIONS” (ARCUTIS BIOTHERAPEUTICS, INC., priority 2023, published 2025).

Tested on: patients with atopic dermatitis
Test: Phase III open-label trial: vIGA-AD, maintenance (BIW) dosing and disease control
Format: in vivo, human
Procedure: The vIGA-AD is a static evaluation of qualitative overall AD severity. This global assessment scale is an ordinal scale with five severity grades (reported only in integers of 0 to 4). Each grade is defined by a distinct and clinically relevant morphologic description that minimizes inter-observer variability (see Table 1). vIGA-AD is evaluated for the entire body except the scalp, palms, and soles.
A Phase III, multicenter, open-label clinical trial was carried out to investigate the use of a topical roflumilast emollient cream to treat patients with atopic dermatitis. The primary objective of this study was to assess long-term safety in a multicenter, open-label, single-arm study in subjects with atopic dermatitis treated with either […] (for subjects ≥6 years of age) or 0.05% (for subjects between 2 to 5 years of age) topical roflumilast cream.
The primary endpoints of the study were adverse events or serious adverse events. The secondary endpoints of this study were validated investigator Global assessment-atopic dermatitis (“vIGA-AD”) value 0 or 1 at each assessment, vIGA-AD success (defined as vIGA-AD value of 0 or 1 plus a 2-grade improvement from baseline), Worst Itch-Numeric Rating Score (“WI-NRS”) score over time, and Eczema Area and Severity Index (“EASI”) score over time.
All patients enrolled in this phase III study applied either a 0.15% or 0.05% roflumilast topical cream once daily until Week 4 of the study. Patients between 2-5 years of age received 0.05% roflumilast topical cream and patients 6 years of age or older received 0.15% roflumilast. Subjects who reached 6 years of age during the study were switched from 0.05% to 0.15% roflumilast topical cream at the first scheduled clinical visit following their sixth birthday. Study medication was applied for up to 24 or 52 weeks to all affected areas, except on the scalp. Beginning at the Week 4 visit, any subject who achieved vIGA-AD of 0 as confirmed by the Investigator at a scheduled or unscheduled clinical visit, was switched from daily to twice weekly administration of roflumilast topical cream. Instructions for the twice weekly administration were to apply the roflumilast topical cream on two nonconsecutive days per week (e.g. Monday and Thursday) to areas commonly and/or most recently affected by atopic dermatitis and any areas where atopic dermatitis was developing.
Clinical visits and phone contact were scheduled at Weeks 4, 12, 18, 24, 30, 36, 44, and 52 of the study. At clinical visits, subjects receiving twice weekly treatment (“maintenance treatment”) were permitted to continue maintenance treatment if vIGA-AD was either 0 or 1. Subjects evaluated at clinical visits with vIGA-AD 2 or greater were instructed to resume daily administration of roflumilast topical cream. Patients were also permitted to resume daily dosing, despite a vIGA-AD of 1, if signs or symptoms of atopic dermatitis were not adequately controlled with maintenance therapy.
Median duration of the first maintenance dosing period was ≥124 days for the 24-week cohort and ≥270 days for the 52-week cohort. 65% percent of these patients were on a maintenance dosing regimen through the final visit. Disease control was defined as a vIGA-AD score of 0, a switch to a maintenance dosing regimen, and a maintenance of a vIGA-AD score of 0 or 1.

O=C(Nc1c(Cl)cncc1Cl)c1ccc(OC(F)F)c(OCC2CC2)c1 [roflumilast, N-(3,5-dichloropyrid-4-yl)-3-cyclopropylmethoxy-4-difluoromethoxybenzamide]
Median duration of the first maintenance (BIW) dosing period (24-week cohort): ≥ 124 days
Median duration of the first maintenance (BIW) dosing period (52-week cohort): ≥ 270 days
number of patients who achieved vIGA-AD=0 and switched to maintenance (BIW) dosing (by Week 24 and Week 52): 132
patients who achieved vIGA-AD=0 and switched to maintenance (BIW) dosing (by Week 24 and Week 52, once daily, twice weekly after vIGA-AD 0): 20.1%
patients on maintenance (BIW) dosing regimen through the final visit (of the 132 patients who switched): 65%
